How the values were obtained:
[1] = tested on: normal NK cells expanded with K562-aAPC; experiment: percent inhibition of viability; higher = more inhibition; settings: 72 h, IL-2 2.5 ng/mL
Description: (§1)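 Drug sensitivity and resistance testing on K562-aAPC-expanded normal NK cells: 5 concentrations (10-fold steps over a 10,000-fold range), 72 h at 37 °C, viability by CellTiter-Glo normalised to DMSO and benzethonium chloride controls; DSS from the fitted curve.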

[2] = tested on: DERL-7 (IL-2 2.5 ng/mL); experiment: as above; settings: 72 h
[3] = tested on: IMC-1 (IL-2 20 ng/mL); experiment: as above; settings: 72 h
[4] = tested on: KAI3 (IL-2 2.5 ng/mL); experiment: as above; settings: 72 h
[5] = tested on: KHYG-1 (IL-2 2.5 ng/mL); experiment: as above; settings: 72 h
[6] = tested on: NK-92 (IL-2 2.5 ng/mL); experiment: as above; settings: 72 h
[7] = tested on: NK-YS (IL-2 2.5 ng/mL); experiment: as above; settings: 72 h
[8] = tested on: NKL (IL-2 2.5 ng/mL); experiment: as above; settings: 72 h
[9] = tested on: SNK-6 (IL-2 2.5 ng/mL); experiment: as above; settings: 72 h
[10] = tested on: YT (IL-2 2.5 ng/mL); experiment: as above; settings: 72 h
[11] = tested on: normal primary NK cells, pool 1 (3 donors) (IL-2 2.5 ng/mL); experiment: as above; settings: 72 h
[12] = tested on: normal primary NK cells, pool 1 (3 donors), resting (IL-2 0 ng/mL); experiment: as above; settings: 72 h
[13] = tested on: normal primary NK cells, pool 2 (3 donors) (IL-2 2.5 ng/mL); experiment: as above; settings: 72 h
[14] = tested on: normal primary NK cells, pool 3 (3 donors) (IL-2 2.5 ng/mL); experiment: as above; settings: 72 h
[15] = tested on: normal NK cells expanded with K562-aAPC; experiment: drug sensitivity score (DSS) (DSS units); higher = more sensitive; extreme values may be limits of the assay; settings: 72 h; IL-2 2.5 ng/mL
Description: as §1

[16] = tested on: DERL-7 (IL-2 2.5 ng/mL); experiment: as above; settings: 72 h
[17] = tested on: IMC-1 (IL-2 20 ng/mL); experiment: as above; settings: 72 h
[18] = tested on: KAI3 (IL-2 2.5 ng/mL); experiment: as above; settings: 72 h
[19] = tested on: KHYG-1 (IL-2 2.5 ng/mL); experiment: as above; settings: 72 h
[20] = tested on: NK-92 (IL-2 2.5 ng/mL); experiment: as above; settings: 72 h
[21] = tested on: NK-YS (IL-2 2.5 ng/mL); experiment: as above; settings: 72 h
[22] = tested on: NKL (IL-2 2.5 ng/mL); experiment: as above; settings: 72 h
[23] = tested on: SNK-6 (IL-2 2.5 ng/mL); experiment: as above; settings: 72 h
[24] = tested on: YT (IL-2 2.5 ng/mL); experiment: as above; settings: 72 h
[25] = tested on: normal primary NK cells, pool 1 (3 donors) (IL-2 2.5 ng/mL); experiment: as above; settings: 72 h
[26] = tested on: normal primary NK cells, pool 1 (3 donors), resting (IL-2 0 ng/mL); experiment: as above; settings: 72 h
[27] = tested on: normal primary NK cells, pool 2 (3 donors) (IL-2 2.5 ng/mL); experiment: as above; settings: 72 h
[28] = tested on: normal primary NK cells, pool 3 (3 donors) (IL-2 2.5 ng/mL); experiment: as above; settings: 72 h

O=C1NC(=O)[C@@H](c2cn3c4c(cccc24)CCC3)[C@@H]1c1c[nH]c2ccccc12 [Tivantinib] (max concentration tested 1000 nM)
percent inhibition of viability [%]
Settings	0.1 nM	1 nM	10 nM	100 nM	1000 nM
[1]	4.66	1	5.6	5.87	61
[2]	1.35	4.31	5.17	-5.73	98.9
[3]	-2.06	-7.71	1.1	0.97	97.6
[4]	-4.06	0.6	3.77	11.4	52.4
[5]	0.89	-0.35	5.11	11.5	99.1
[6]	-9.63	-0.01	-3.88	39	94.7
[7]	0.78	-2.63	4.33	31.1	73.6
[8]	-20.3	-13.1	-9.15	-9.89	84.3
[9]	9.19	0.24	0.91	70.4	83.3
[10]	-0.05	-2.14	2.38	8.83	93.5
[11]	-0.92	0.64	-7.52	-8.4	6.83
[12]	-0.8	10.8	3.09	6.28	8.64
[13]	-7.65	-12.3	-6.73	13.4	23.2
[14]	-12.8	-3.79	-11.9	5.81	17.4

Settings	drug sensitivity score
[15]	4.27
[16]	5.07
[17]	5.57
[18]	4.63
[19]	7.4
[20]	10.4
[21]	7.74
[22]	4.03
[23]	12.9
[24]	6.61
[25]	0
[26]	0
[27]	2.26
[28]	1

Reference: the supplement of paper PMC5908809
